Results on three compounds are retold here after ChEMBL document CHEMBL1629426, “7-Nor-ergosterolide, a pentalactone-containing norsteroid and related steroids from the marine-derived endophytic Aspergillus ochraceus EN-31” (J Nat Prod, 2010).

Test [1] concerns Staphylococcus aureus. As to the kind of experiment: Antimicrobial activity against Staphylococcus aureus by agar diffusion method. In kind it is functional, organism-based. For orientation: A growth-free zone around the sample is the usual read-out of agar diffusion tests.
Test [2] relates to Escherichia coli. As to the kind of experiment: Antimicrobial activity against Escherichia coli by agar diffusion method. In kind it is functional, organism-based.
Test [3] relates to Aspergillus niger. The experiment in a line: Antimicrobial activity against Aspergillus niger by agar diffusion method. In kind it is functional, organism-based.
In test [4] the test system is NCI-H460. As to the kind of experiment: Cytotoxicity against human NCI-H460 cells by colorimetric assay. In kind it is functional, cell-based.
The test system of test [5] is SMMC-7721. As to the kind of experiment: Cytotoxicity against human SMMC7721 cells by colorimetric assay. In kind it is functional, cell-based.
The subject of test [6] is SW1990. The experiment in a line: Cytotoxicity against human SW1990 cells by colorimetric assay. In kind it is functional, cell-based.

Values after ≈ are worked out from the molar mass of the structure shown. Active and inactive are the calls of the source. No cut-off for these calls is given here.

With `C=C(CC[C@@H](C)[C@H]1CC[C@H]2C3=C(CC[C@]12C)[C@@]1(C)CC[C@H](O)C[C@@H]1CC3=O)C(C)C`, the result in test [1], in test [2] and in test [3] was inactive.
The IC50 is the midpoint of a concentration-inhibition curve. A low value points to greater potency. As to `C=C(CC[C@@H](C)[C@H]1CC[C@H]2C3=C(CC[C@]12C)[C@@]1(C)CC[C@H](O)C[C@@H]1C(=O)O3)C(C)C`, the IC50 in test [4] was 5 µg/mL (≈ 12.1 µM); in test [5], 7 µg/mL (≈ 16.9 µM); in test [6] it was 28 µg/mL (≈ 67.5 µM). The outcome in test [1], in test [2] and in test [3] was inactive.
Take `C=C(CC[C@@H](C)[C@H]1CC[C@H]2C3=C([C@H](O)C[C@]12C)[C@@]1(C)CC[C@H](O)C[C@@H]1CC3=O)C(C)C`: in test [5], it took 28 µg/mL (≈ 65.3 µM) to reach half-maximal inhibition (IC50). The result in test [1], in test [2] and in test [3] was inactive.
